These are literature values, as cited in patent US20110135569A1, “METHOD FOR THERAPEUTIC ADMINISTRATION OF RADIONUCLEOSIDES” (Peak Biosciences Inc., priority 2007, published 2011).

For data set [1] the following is noted: human subjects; locally injected or intra-arterially infused.
In data set [2] the test system is replicating cancer cells. The following applies: low picomolar range, e.g. value.

`O=c1[nH]c(=O)n([C@H]2C[C@H](O)[C@@H](CO)O2)cc1[125I]` [^125IUDR, 5-[^125I]-iodouridine 2′-deoxyribonucleoside]: the plasma half-life entry in data set [1] is recorded as “less than 5 minutes”. In data set [2], the “concentration able to destroy the chromosomes of replicating cancer cells” value is 5 picomoles/liter.
